Results published in ChEMBL document CHEMBL1201862, “PubChem BioAssay data set” (2004).
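These data come from cells grown in 96-well plates and exposed to compound for 48 hours at five concentrations. GI50: concentration for 50% inhibition of growth.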 Calls of active or inactive are those of the source. Rule as the data show it: active = GI50 up to about 1.1 µM and inactive = higher.

Assays:
Test in all cases: growth of human tumour cells (NCI), 48 h
786-0 = tested on: 786-0
A498 = tested on: A498
A549 = tested on: A549
ACHN = tested on: ACHN
BT-549 = tested on: BT-549
CAKI-1 = tested on: CAKI-1
CCRF-CEM = tested on: CCRF-CEM
COLO 205 = tested on: COLO 205
DU-145 = tested on: DU-145
EKVX = tested on: EKVX
HCC 2998 = tested on: HCC 2998
HCT-116 = tested on: HCT-116
HCT-15 = tested on: HCT-15
HL-60 = tested on: HL-60
HOP-92 = tested on: HOP-92
IGROV-1 = tested on: IGROV-1
K562 = tested on: K562
KM12 = tested on: KM12
LOX IMVI = tested on: LOX IMVI
M14 = tested on: M14
MCF7 = tested on: MCF7
MDA-MB-231 = tested on: MDA-MB-231
MDA-MB-435 = tested on: MDA-MB-435
MDA-N = tested on: MDA-N
MOLT-4 = tested on: MOLT-4
Malme-3M = tested on: Malme-3M
NCI-H226 = tested on: NCI-H226
NCI-H23 = tested on: NCI-H23
NCI-H522 = tested on: NCI-H522
NCI/ADR-RES = tested on: NCI/ADR-RES
OVCAR-3 = tested on: OVCAR-3
OVCAR-4 = tested on: OVCAR-4
OVCAR-5 = tested on: OVCAR-5
OVCAR-8 = tested on: OVCAR-8
PC-3 = tested on: PC-3
RPMI-8226 = tested on: RPMI-8226
RXF 393 = tested on: RXF 393
SF-295 = tested on: SF-295
SF-539 = tested on: SF-539
SK-MEL-2 = tested on: SK-MEL-2
SK-MEL-5 = tested on: SK-MEL-5
SK-OV-3 = tested on: SK-OV-3
SN12C = tested on: SN12C
SR = tested on: SR
SW-620 = tested on: SW-620
TK-10 = tested on: TK-10
U-251 = tested on: U-251
UACC-257 = tested on: UACC-257
UACC-62 = tested on: UACC-62
UO-31 = tested on: UO-31
HOP-62 = tested on: HOP-62
HT-29 = tested on: HT-29
Hs-578T = tested on: Hs-578T
NCI-H460 = tested on: NCI-H460
SF-268 = tested on: SF-268
SK-MEL-28 = tested on: SK-MEL-28
SNB-19 = tested on: SNB-19
SNB-75 = tested on: SNB-75
T47D = tested on: T47D

For `CCOC(=O)/C(C#N)=C/Nc1c(C)n(C)n(-c2ccccc2)c1=O`, the GI50 (786-0) was > 100 µM (inactive), the GI50 (A498) was > 100 µM (inactive) and the GI50 (A549) was > 100 µM (inactive). The GI50 (ACHN) was > 100 µM (inactive), the GI50 (BT-549) was > 100 µM (inactive) and the GI50 (CAKI-1) was > 100 µM (inactive). For the same molecule, the GI50 (CCRF-CEM) was > 100 µM (inactive), the GI50 (COLO 205) was > 100 µM (inactive) and the GI50 (DU-145) was > 100 µM (inactive). The GI50 (EKVX) was > 100 µM (inactive), the GI50 (HCC 2998) was > 100 µM (inactive) and the GI50 (HCT-116) was > 100 µM (inactive). For the same molecule, the GI50 (HCT-15) was over 100 µM, the GI50 (HL-60) was > 100 µM (inactive) and the GI50 (HOP-92) was > 100 µM (inactive). The GI50 (IGROV-1) was > 100 µM (inactive), the GI50 (K562) was > 100 µM (inactive) and the GI50 (KM12) was > 100 µM (inactive). For the same molecule, the GI50 (LOX IMVI) was > 100 µM (inactive), the GI50 (M14) was > 100 µM (inactive) and the GI50 (MCF7) was > 100 µM (inactive). For the same molecule, the GI50 (MDA-MB-231) was > 100 µM (inactive), the GI50 (MDA-MB-435) was > 100 µM (inactive) and the GI50 (MDA-N) was > 100 µM (inactive). The GI50 (MOLT-4) was > 100 µM (inactive), the GI50 (Malme-3M) was > 100 µM (inactive) and the GI50 (NCI-H226) was 43.4 µM (inactive). For the same molecule, the GI50 (NCI-H23) was > 100 µM (inactive), the GI50 (NCI-H522) was > 100 µM (inactive) and the GI50 (NCI/ADR-RES) was 47.6 µM (inactive). The GI50 (OVCAR-3) was > 100 µM (inactive), the GI50 (OVCAR-4) was > 100 µM (inactive) and the GI50 (OVCAR-5) was > 100 µM (inactive). For the same molecule, the GI50 (OVCAR-8) was > 100 µM (inactive), the GI50 (PC-3) was > 100 µM (inactive) and the GI50 (RPMI-8226) was > 100 µM (inactive). For the same molecule, the GI50 (RXF 393) was > 100 µM (inactive), the GI50 (SF-295) was > 100 µM (inactive) and the GI50 (SF-539) was > 100 µM (inactive). The GI50 (SK-MEL-2) was > 100 µM (inactive), the GI50 (SK-MEL-5) was > 100 µM (inactive) and the GI50 (SK-OV-3) was > 100 µM (inactive). The GI50 (SN12C) was > 100 µM (inactive), the GI50 (SR) was > 100 µM (inactive) and the GI50 (SW-620) was > 100 µM (inactive). The GI50 (TK-10) was > 100 µM (inactive), the GI50 (U-251) was > 100 µM (inactive) and the GI50 (UACC-257) was > 100 µM (inactive). The GI50 (UACC-62) was > 100 µM (inactive) and the GI50 (UO-31) was > 100 µM (inactive).
In the case of `c1csc(-c2nnc(C34CC5CC(CC(C5)C3)C4)o2)c1`, the GI50 (786-0) is reported as 24.7 µM (inactive), the GI50 (A498) is reported as 16.9 µM (inactive) and the GI50 (A549) is reported as 39.4 µM (inactive). For the same molecule, the GI50 (ACHN) was 33.3 µM (inactive), the GI50 (CAKI-1) was 87.1 µM (inactive) and the GI50 (CCRF-CEM) was 21.7 µM (inactive). The GI50 (COLO 205) was 17.5 µM (inactive), the GI50 (DU-145) was 44.2 µM (inactive) and the GI50 (EKVX) was 44.1 µM (inactive). The GI50 (HCC 2998) was 35.4 µM (inactive), the GI50 (HCT-116) was 32.2 µM (inactive) and the GI50 (HCT-15) was 38.1 µM. The GI50 (HL-60) was 15.1 µM (inactive), the GI50 (HOP-62) was 29.4 µM (inactive) and the GI50 (HOP-92) was 29.1 µM (inactive). The GI50 (HT-29) was 19 µM (inactive), the GI50 (Hs-578T) was 31.6 µM (inactive) and the GI50 (IGROV-1) was 31.9 µM (inactive). The GI50 (K562) was 34 µM (inactive), the GI50 (KM12) was 52 µM (inactive) and the GI50 (LOX IMVI) was 23.6 µM (inactive). The GI50 (M14) was 37.2 µM (inactive), the GI50 (MCF7) was < 0.01 µM (active) and the GI50 (MDA-MB-231) was 17.7 µM (inactive). The GI50 (MDA-MB-435) was 36.5 µM (inactive), the GI50 (MDA-N) was 37.7 µM (inactive) and the GI50 (MOLT-4) was 24.7 µM (inactive). The GI50 (Malme-3M) was 16.4 µM (inactive), the GI50 (NCI-H226) was 29.9 µM (inactive) and the GI50 (NCI-H23) was 42.7 µM (inactive). For the same molecule, the GI50 (NCI-H460) was 39.9 µM (inactive), the GI50 (NCI-H522) was 36.8 µM (inactive) and the GI50 (NCI/ADR-RES) was 21.7 µM (inactive). For the same molecule, the GI50 (OVCAR-3) was 13.6 µM (inactive), the GI50 (OVCAR-4) was 34.2 µM (inactive) and the GI50 (OVCAR-5) was 32.4 µM (inactive). The GI50 (OVCAR-8) was 37.6 µM (inactive), the GI50 (PC-3) was 28 µM (inactive) and the GI50 (RPMI-8226) was 36.2 µM (inactive). For the same molecule, the GI50 (RXF 393) was 23.3 µM (inactive), the GI50 (SF-268) was 46.5 µM (inactive) and the GI50 (SF-295) was 42.1 µM (inactive). For the same molecule, the GI50 (SF-539) was 19 µM (inactive), the GI50 (SK-MEL-28) was 40.6 µM (inactive) and the GI50 (SK-MEL-2) was 24.5 µM (inactive). The GI50 (SK-MEL-5) was 17.1 µM (inactive), the GI50 (SK-OV-3) was 53.1 µM (inactive) and the GI50 (SN12C) was 38 µM (inactive). The GI50 (SNB-19) was 51.6 µM (inactive), the GI50 (SNB-75) was 32.5 µM (inactive) and the GI50 (SR) was 27.7 µM (inactive). The GI50 (SW-620) was 45.8 µM (inactive), the GI50 (T47D) was 26.9 µM (inactive) and the GI50 (TK-10) was 47.4 µM (inactive). The GI50 (U-251) was 39.6 µM (inactive), the GI50 (UACC-62) was 36.2 µM (inactive) and the GI50 (UO-31) was 3.96 µM (inactive).
For `CC1=C(CO)C2=C(C)C3(CC3)[C@@](C)(O)C(=O)C2=C1` [IROFULVEN], the GI50 (786-0) was 0.199 µM (active), the GI50 (A498) was 0.179 µM (active) and the GI50 (A549) was 0.113 µM (active). For the same molecule, the GI50 (ACHN) was 0.262 µM (active), the GI50 (CAKI-1) was 0.265 µM (active) and the GI50 (CCRF-CEM) was 1.82 µM (inactive). The GI50 (COLO 205) was 0.166 µM (active), the GI50 (DU-145) was 0.0929 µM (active) and the GI50 (EKVX) was 0.19 µM (active). The GI50 (HCC 2998) was 0.153 µM (active), the GI50 (HCT-116) was 0.21 µM (active) and the GI50 (HCT-15) was 0.29 µM. The GI50 (HL-60) was 0.237 µM (active), the GI50 (HOP-62) was 0.161 µM (active) and the GI50 (HOP-92) was 0.309 µM (active). The GI50 (HT-29) was 0.234 µM (active), the GI50 (Hs-578T) was 0.29 µM (active) and the GI50 (IGROV-1) was 0.149 µM (active). The GI50 (K562) was 3.37 µM (inactive), the GI50 (KM12) was 0.697 µM (active) and the GI50 (LOX IMVI) was 0.582 µM (active). For the same molecule, the GI50 (M14) was 0.258 µM (active), the GI50 (MCF7) was 0.242 µM (active) and the GI50 (MDA-MB-231) was 0.303 µM (active). For the same molecule, the GI50 (MDA-MB-435) was 1.47 µM (inactive), the GI50 (MDA-N) was 1.04 µM (active) and the GI50 (MOLT-4) was 0.785 µM (active). The GI50 (Malme-3M) was 0.218 µM (active), the GI50 (NCI-H226) was 0.191 µM (active) and the GI50 (NCI-H23) was 0.0877 µM (active). For the same molecule, the GI50 (NCI-H460) was 0.0467 µM (active), the GI50 (NCI-H522) was 0.146 µM (active) and the GI50 (NCI/ADR-RES) was 0.241 µM (active). For the same molecule, the GI50 (OVCAR-3) was 0.26 µM (active), the GI50 (OVCAR-4) was 0.237 µM (active) and the GI50 (OVCAR-5) was 0.174 µM (active). The GI50 (OVCAR-8) was 0.219 µM (active), the GI50 (PC-3) was 0.267 µM (active) and the GI50 (RPMI-8226) was 34.1 µM (inactive). The GI50 (RXF 393) was 0.0507 µM (active), the GI50 (SF-268) was 0.234 µM (active) and the GI50 (SF-295) was 0.302 µM (active). The GI50 (SF-539) was 0.172 µM (active), the GI50 (SK-MEL-28) was 0.582 µM (active) and the GI50 (SK-MEL-2) was 0.196 µM (active). For the same molecule, the GI50 (SK-MEL-5) was 0.161 µM (active), the GI50 (SK-OV-3) was 0.248 µM (active) and the GI50 (SN12C) was 0.409 µM (active). The GI50 (SNB-19) was 0.348 µM (active), the GI50 (SNB-75) was 0.191 µM (active) and the GI50 (SR) was 0.792 µM (active). For the same molecule, the GI50 (SW-620) was 0.614 µM (active), the GI50 (T47D) was 0.218 µM (active) and the GI50 (TK-10) was 0.279 µM (active). The GI50 (U-251) was 0.286 µM (active), the GI50 (UACC-257) was 0.227 µM (active) and the GI50 (UO-31) was 0.19 µM (active).
